Patent publication US9346761B2, “Arginine methyltransferase inhibitors and uses thereof” (Epizyme, Inc., priority 2013, dated 2016)
Counter-ions that a name gives are not always drawn. Like-named read-outs stand apart in the source and are kept apart here.

Assays:
Full-length human PRMT8 = target: T1, Full-length human PRMT8 (Homo sapiens, UniProt Q9NR22); test: PRMT8 biochemical assay (3H-SAM Flashplate, peptide substrate)
T1 construct: Full-length human PRMT8 (NM_019854.4) isoform 1 transcript clone; made in house
T1 sequence (Q9NR22 whole entry, canonical isoform): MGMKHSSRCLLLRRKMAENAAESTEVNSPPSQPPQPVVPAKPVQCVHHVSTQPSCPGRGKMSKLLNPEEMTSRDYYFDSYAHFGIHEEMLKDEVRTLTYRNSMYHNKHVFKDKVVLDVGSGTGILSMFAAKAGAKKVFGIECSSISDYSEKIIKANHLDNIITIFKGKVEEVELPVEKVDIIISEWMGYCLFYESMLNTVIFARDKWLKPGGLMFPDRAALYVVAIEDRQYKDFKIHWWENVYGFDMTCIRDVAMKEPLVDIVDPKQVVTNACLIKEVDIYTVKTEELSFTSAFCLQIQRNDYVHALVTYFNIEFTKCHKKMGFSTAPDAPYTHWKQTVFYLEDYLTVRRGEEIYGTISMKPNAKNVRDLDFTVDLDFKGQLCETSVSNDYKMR
Excerpt: General Materials. S-adenosylmethionine (SAM), S-adenosylhomocysteine (SAH), bicine, Tween20, dimethylsulfoxide (DMSO), bovine skin gelatin (BSG), isopropyl-β-D-thiogalactopyranoside (IPTG), and Tris(2-carboxyethyl)phosphine hydrochloride solution (TCEP) were purchased from Sigma-Aldrich at the highest level of purity possible. ^3H-SAM was purchase from American Radiolabeled Chemicals with a specific activity of 80 Ci/mmol. 384-well streptavidin Flashplates were purchased from PerkinElmer.
Substrates. Peptide representative of human histone H4 residues 31-45 was synthesized with an N-terminal linker-affinity tag motif and a C-terminal amide cap by 21st Century Biochemicals.
Protein Expression. E. coli (BL21(DE3) Gold, Stratagene) made competent by the CaCl2 method were transformed with the PRMT8 construct and ampicillin selection. Protein over-expression was accomplished by growing the PRMT8 expressing E. coli clone and inducing expression with 0.3 mM IPTG at 16° C. The culture was grown for 12 hours, harvested by centrifugation, and stored at −80° C. for purification.
Protein Purification. […] GST-tagged PRMT8 was eluted with 50 mM Tris, 2 mM glutathione, pH 7.8. Pooled fractions were cleaved by thrombin (10 U) and dialysed in buffer A. GST was removed by reloading the cleaved protein sample onto glutathione sepharose column and PRMT8 was collected in the flow-through fractions. PRMT8 was purified further by ceramic hydroxyapatite chromatography. The column was washed with 50 mM phosphate buffer, 100 mM NaCl, 5% glycerol, 5 mM β-mercaptoethanol, pH 7.8 and PRMT8 was eluted by 100 mM phosphate in the same buffer. Protein was concentrated and buffer was exchanged to 50 mM Tris, 300 mM NaCl, 10% glycerol, 5 mM β-mercaptoethanol, pH 7.8 by ultrafiltration.
General Procedure for PRMT8 Enzyme Assays on Peptide Substrates. The assays were all performed in a buffer consisting of 20 mM Bicine (pH=7.6), 1 mM TCEP, 0.005% BSG, and 0.002% Tween 20, prepared on the day of use. […] DMSO (1 ul) was added to Columns 11, 12, 23, 24, rows A-H for the maximum signal control and 1 ul of SAH, a known product and inhibitor of PRMT8, was added to columns 11, 12, 23, 24, rows I-P for the minimum signal control. A cocktail (40 ul) containing the PRMT8 enzyme was added by Multidrop Combi (Thermo-Fisher). The compounds were allowed to incubate with PRMT8 for 30 min at room temperature, then a cocktail (10 ul) containing ^3H-SAM and peptide was added to initiate the reaction (final volume=51 ul). […] The assays were stopped by the addition of non-radiolabeled SAM (10 ul) to a final concentration of 400 uM, which dilutes the ^3H-SAM to a level where its incorporation into the peptide substrate is no longer detectable. 50 ul of the reaction in the 384-well polypropylene plate was then transferred to a 384-well Flashplate and the biotinylated peptides were allowed to bind to the streptavidin surface for at least 1 hour before being washed once with 0.1% Tween20 in a Biotek ELx405 plate washer. The plates were then read in a PerkinElmer TopCount plate reader to measure the quantity of ^3H-labeled peptide bound to the Flashplate surface, measured as disintegrations per minute (dpm) or alternatively, referred to as counts per minute (cpm).
Where dpm=disintegrations per minute, cmpd=signal in assay well, and min and max are the respective minimum and maximum signal controls.
Where top and bottom are the normally allowed to float, but may be fixed at 100 or 0 respectively in a 3-parameter fit. The Hill Coefficient normally allowed to float but may also be fixed at 1 in a 3-parameter fit. Y is the % inhibition and X is the compound concentration.

[1] = tested on: mono-methyl arginine in RKO cells; test: RKO methylation assay, In Cell Western for mono-methyl arginine and DNA content; format: cell-based; conditions: Homo sapiens
[2] = In Cell Western, RKO cells, 72 hours, percent activation of mono-methyl arginine signal, read-out: EC30

Row | SMILES | IC50 (Full-length human PRMT8) | EC30 [1, 2] | EC30 ([1]; RKO, 72 h)
1 | CNCCN(C)Cc1cn(C2CC2)nc1-c1ccc(F)cc1 [Compound 13] | > 10 µM | > 12 µM | 
2 | CNCCN(C)Cc1cnn(C2CC2)c1-c1ccc(F)cc1 [Compound 14] | 1.01 to 3 µM | 3.01 to 12 µM | 
3 | CNCCN(C)Cc1cn(C(C)C)nc1-c1ccc(F)cc1 [Compound 15] | > 10 µM | > 12 µM | 
4 | CNCCN(C)Cc1cnn(C(C)C)c1-c1ccc(F)cc1 [Compound 16] | > 10 µM |  | > 12 µM
5 | CNCCN(C)Cc1cn[nH]c1-c1ccc(C#N)cc1 [Compound 17] | < 0.1 µM |  | > 12 µM
6 | CNCCN(C)Cc1cn[nH]c1-c1cc(F)cc(F)c1 [Compound 18] | 0.101 to 1 µM | > 12 µM | 
7 | CCCc1ccc(-c2n[nH]cc2CN(C)CCNC)cc1 [Compound 20] | < 0.1 µM | < 3 µM | 
8 | CNCCN(C)Cc1c[nH]nc1-c1cccc([N+](=O)[O-])c1 [Compound 21] | 0.101 to 1 µM | > 12 µM | 
9 | CNCCN(C)Cc1c[nH]nc1-c1cccc(C#N)c1 [Compound 22] | 1.01 to 3 µM | > 12 µM | 
10 | CNCCN(C)Cc1c[nH]nc1-c1ccccc1OC [Compound 23] | 3.01 to 10 µM | > 12 µM | 
11 | CNCCN(C)Cc1c[nH]nc1-c1cccc(OC)c1 [Compound 24] | 0.101 to 1 µM | > 12 µM | 
12 | CNCCN(C)Cc1c[nH]nc1-c1ccc(OC)cc1 [Compound 25] | 0.101 to 1 µM | > 12 µM | 
13 | CNCCN(C)Cc1c[nH]nc1-c1cccc(O)c1 [Compound 26] | 1.01 to 3 µM | > 12 µM | 
14 | CNCCN(C)Cc1c[nH]nc1-c1ccc(O)cc1 [Compound 27] | 0.101 to 1 µM | > 12 µM | 
15 | CNCCN(C)Cc1c[nH]nc1-c1ccc(CO)cc1 [Compound 28] | < 0.1 µM | 3.01 to 12 µM | 
16 | CNCCN(C)Cc1c[nH]nc1-c1ccc(C)cc1C [Compound 29] | 1.01 to 3 µM | > 12 µM | 
17 | CNCCN(C)Cc1cn(CCCC(O)CO)nc1-c1ccc(F)cc1 (centres unmarked) [Compound 30] | > 10 µM | > 12 µM | 
18 | CNCCN(C)Cc1cnn(CCCC(O)CO)c1-c1ccc(F)cc1 (centres unmarked) [Compound 31] | 3.01 to 10 µM | > 12 µM | 
19 | CNCCN(C)Cc1c[nH]nc1-c1ccc(N)cc1 [Compound 33] | 1.01 to 3 µM | > 12 µM | 
20 | CNCCN(C)Cc1c[nH]nc1-c1ccc(Oc2ccccc2)cc1 [Compound 37] | < 0.1 µM | < 3 µM | 

Row | SMILES | IC50 (Full-length human PRMT8) | EC30 [1, 2] | EC30 ([1]; RKO, 72 h)
21 | CNCCN(C)Cc1c[nH]nc1-c1ccccc1C(F)(F)F [Compound 38] | 3.01 to 10 µM | > 12 µM | 
22 | CNCCN(C)Cc1c[nH]nc1-c1ccccc1OC(F)(F)F [Compound 40] | 3.01 to 10 µM | > 12 µM | 
23 | CCNC(=O)c1cccc(-c2n[nH]cc2CN(C)CCNC)c1 [Compound 43] | 1.01 to 3 µM | > 12 µM | 
24 | CNCCN(C)Cc1c[nH]nc1-c1ccc(C(F)(F)F)cc1 [Compound 174] | 0.101 to 1 µM | < 3 µM | 
25 | CC(C)CC(=O)N1CCN(c2ccc(-c3n[nH]cc3CN(C)CCN)cc2)CC1 [Compound 180] | 3.01 to 10 µM | > 12 µM | 
26 | CNCCN(C)Cc1c[nH]nc1-c1ccc(Cl)c(F)c1 [Compound 182] | 0.101 to 1 µM | < 3 µM | 
27 | CN(CCNC1CC1)Cc1c[nH]nc1-c1ccc(C#N)cc1 [Compound 183] | 3.01 to 10 µM | > 12 µM | 
28 | CN(CCN(C)C1CC1)Cc1c[nH]nc1-c1ccc(C#N)cc1 [Compound 184] | 3.01 to 10 µM | < 3 µM | 
29 | CN(CCN1CCC1)Cc1c[nH]nc1-c1ccc(C#N)cc1 [Compound 185] | 3.01 to 10 µM | > 12 µM | 
30 | CC(C)Oc1cccc(-c2n[nH]cc2CN(C)CCN)c1 [Compound 187] | 1.01 to 3 µM | 3.01 to 12 µM | 
31 | CC(C)Oc1cc(-c2n[nH]cc2CN(C)CCN)ccc1F [Compound 188] | 1.01 to 3 µM | > 12 µM | 
32 | CCC(=O)N1CCN(c2ccc(-c3n[nH]cc3CN(C)CCN)cc2)CC1 [Compound 189] | 1.01 to 3 µM | > 12 µM | 
33 | CC(C)CN1C(=O)COc2ccc(-c3n[nH]cc3CN(C)CCN)cc21 [Compound 191] | 3.01 to 10 µM | > 12 µM | 
34 | CN(CCN)Cc1c[nH]nc1-c1ccc2c(c1)OCC(=O)N2C [Compound 192] | 1.01 to 3 µM | > 12 µM | 
35 | CC(C)CN1C(=O)COc2cc(-c3n[nH]cc3CN(C)CCN)ccc21 [Compound 193] | 0.101 to 1 µM | 3.01 to 12 µM | 
36 | CN(CCN)Cc1c[nH]nc1-c1ccc(OCCO)cc1 [Compound 194] | 0.101 to 1 µM | > 12 µM | 
37 | CN(CCN)Cc1c[nH]nc1-c1ccc(OCCCO)cc1 [Compound 195] | 0.101 to 1 µM | 3.01 to 12 µM | 
38 | CN(CCN)Cc1c[nH]nc1-c1ccc2c(c1)N(C)C(=O)CO2 [Compound 196] | 1.01 to 3 µM | > 12 µM | 
39 | CCNC(=O)c1cccc(-c2n[nH]cc2CN(C)CCN)c1 [Compound 197] | 1.01 to 3 µM | > 12 µM | 
40 | CCN(C)C(=O)c1cccc(-c2n[nH]cc2CN(C)CCN)c1 [Compound 198] | > 10 µM | > 12 µM | 

Row | SMILES | IC50 (Full-length human PRMT8) | EC30 [1, 2] | EC30 ([1]; RKO, 72 h)
41 | CCn1cc(CN(C)CCNC)c(-c2ccc(OC(C)C)cc2)n1 [Compound 213] |  | > 12 µM | 
42 | CNCCN(C)Cc1cn(C2CCCC2)nc1-c1ccc(OC(C)C)cc1 [Compound 214] |  | > 12 µM | 
43 | CNCCN(C)Cc1cn(C2CCOC2)nc1-c1ccc(OC(C)C)cc1 (centres unmarked) [Compound 215] |  | > 12 µM | 
44 | CNCCN(C)Cc1cnn(C2CCOC2)c1-c1ccc(OC(C)C)cc1 (centres unmarked) [Compound 216] |  | > 12 µM | 
45 | CNCCN(C)Cc1cn(Cc2ccccc2)nc1-c1ccc(OC(C)C)cc1 [Compound 217] |  | > 12 µM | 
46 | C=CCn1cc(CN(C)CCNC)c(-c2ccc(OC(C)C)cc2)n1 [Compound 218] |  | > 12 µM | 
47 | C=CCn1ncc(CN(C)CCNC)c1-c1ccc(OC(C)C)cc1 [Compound 219] |  | > 12 µM | 
48 | CNCCN(C)Cc1cn(C)nc1-c1ccc(OC(C)C)cc1 [Compound 243, N1-((3-(4-isopropoxyphenyl)-1-methyl-1H-pyrazol-4-yl)methyl)-N1,N2-dimethylethane-1,2-diamine] |  | < 3 µM | 
49 | CNCCN(C)Cc1cn(Cc2cccnc2)nc1-c1ccc(OC(C)C)cc1 [Compound 246] |  |  | < 3 µM
50 | CNCCN(C)Cc1cn(Cc2ccccn2)nc1-c1ccc(OC(C)C)cc1 [Compound 247] |  | 3.01 to 12 µM | 
51 | CNCCN(C)Cc1cn(CC(=O)OC)nc1-c1ccc(OC(C)C)cc1 [Compound 248] |  | > 12 µM | 
52 | CNCCN(C)Cc1cn(CC(N)=O)nc1-c1ccc(OC(C)C)cc1 [Compound 251] |  | > 12 µM | 
53 | CCn1ncc(CN(C)CCNC)c1-c1ccc(OC(C)C)cc1 [Compound 252] |  |  | < 3 µM
54 | CNCCN(C)Cc1cn(CCOC)nc1-c1ccc(OC(C)C)cc1 [Compound 253, N1-((3-(4-isopropoxyphenyl)-1-(2-methoxyethyl)-1H-pyrazol-4-yl)methyl)-N1,N2-dimethylethane-1,2-diamine hydrochloride] |  | 3.01 to 12 µM | 
55 | CNCCN(C)Cc1cn(C2CCC2)nc1-c1ccc(OC(C)C)cc1 [Compound 254, N1-((1-cyclobutyl-3-(4-isopropoxyphenyl)-1H-pyrazol-4-yl)methyl)-N1,N2-dimethylethane-1,2-diamine hydrochloride] |  | < 3 µM | 
56 | CNCCN(C)Cc1cnn(C2CCCC2)c1-c1ccc(OC(C)C)cc1 [Compound 255] |  |  | < 3 µM
57 | C=C(C)C(=O)Nc1cccc(-c2[nH]ncc2CN(C)CCNC)c1 [Compound 257] |  | > 12 µM | 
58 | C=CC(=O)Nc1cccc(-c2[nH]ncc2CN(C)CCNC)c1 [Compound 258] |  | > 12 µM | 
